This test has as its system Toledo cells. The test is described as follows: Cell proliferation assay, Toledo cells (MTS, 72 h). It counts as cell-based. The following applies: Homo sapiens, Toledo cells, MTS, read-out: Toledo IC50. Here is the method: MTS testing kit was purchased from Promega (Madison, Wis., USA). The RPMI-1640, Fetal bovine serum and Penicillin-Streptomycin were purchased from BI (Biological Industries, Beit Haemek, Israel). Dimethyl sulfoxide (DMSO) was purchased from Sigma (St. Louis, Mo., USA). Toledo (ATCC catalog #: CRL-2631) cells were cultured in RPMI-1640 supplemented with Penicillin-Streptomycin and 10% FBS.
To investigate whether a compound is able to inhibit the activity of BCL-2 in cells, a mechanism-based assay using Toledo lines was developed. In this assay, the inhibition of BCL-2 was reflected by the inhibition of cell proliferation of Toledo cells. Cells were plated into 96-well plates at the optimized cell density of 30000 cells/well. Plates were incubated at 37° C., with 5% CO2 for 4h. Compounds were serially diluted and added to the plates with the final concentrations of 10000, 3333.3, 1111.1, 370.4, 123.5, 41.2, 13.7, 4.6 and 1.5 nM. Plates were incubated at 37° C., with 5% CO2 for 72 h. 20 μl MTS was added into each well and the plates were incubated at 37° C., with 5% CO2 for exactly 2 h. The absorbance was measured by a microplate reader at 490 nm. IC50 was calculated using GraphPad Prism 5.0 software.
`CC(C)c1ccccc1[C@@H]1CS(=O)(=O)CCN1C1CC2(CCN(c3ccc(C(=O)NS(=O)(=O)c4cc5c(c([N+](=O)[O-])c4)N[C@@H]([C@H]4CC[C@](C)(O)CC4)CO5)c(Oc4cnc5[nH]cc(F)c5c4)c3)CC2)C1` (single isomer, unassigned) [Example D-79, 2-((3-fluoro-1H-pyrrolo[2,3-b]pyridin-5-yl)oxy)-N-(((S)-3-((1r,4S)-4-hydroxy-4-methylcyclohexyl)-5-nitro-3,4-dihydro-2H-benzo[b] [1,4]oxazin-7-yl)sulfonyl)-4-(2-((R or S)-3-(2-isopropylphenyl)-1,1-dioxidothiomorpholino)-7-azaspiro [3.5]nonan-7-yl)benzamide]: the IC50 was found to be 1 nM. Then `CC(C)c1ccccc1[C@@H]1CCCN1C1CC2(CCN(c3ccc(C(=O)NS(=O)(=O)c4cc5c(c([N+](=O)[O-])c4)N[C@@H]([C@H]4CC[C@](C)(O)CC4)CO5)c(Oc4cc5cc[nH]c5nc4O[C@H]4CCOC4)c3)CC2)C1` (single isomer, unassigned) [Example D-74, N-(((S)-3-((1r,4S)-4-hydroxy-4-methylcyclohexyl)-5-nitro-3,4-dihydro-2H-benzo[b][1,4]oxazin-7-yl)sulfonyl)-4-(2-((R or S)-2-(2-isopropylphenyl)pyrrolidin-1-yl)-7-azaspiro[3.5]nonan-7-yl)-2-((6-(((S)-tetrahydrofuran-3-yl)oxy)-1H-pyrrolo[2,3-b]pyridin-5-yl)oxy)benzamide], with 1 nM.

In the case of `CC(C)c1ccccc1[C@@H]1CCCN1C1CC2(CCN(c3ccc(C(=O)NS(=O)(=O)c4cc5c(c([N+](=O)[O-])c4)N[C@@H]([C@H]4CC[C@](C)(O)CC4)CO5)c(Oc4cc5c(F)c[nH]c5nc4OC[C@H](C)O)c3)CC2)C1` (single isomer, unassigned) [Example D-221, 2-((3-fluoro-6-((S)-2-hydroxypropoxy)-1H-pyrrolo[2,3-b]pyridin-5-yl)oxy)-N-(((S)-3-((1r,4S)-4-hydroxy-4-methylcyclohexyl)-5-nitro-3,4-dihydro-2H-benzo[b][1,4]oxazin-7-yl)sulfonyl)-4-(2-((R or S)-2-(2-isopropylphenyl)pyrrolidin-1-yl)-7-azaspiro[3.5]nonan-7-yl)benzamide], the IC50 worked out at 1 nM. The result for `CC(C)c1ccccc1[C@@H]1CCCN1C1CC2(CCN(c3ccc(C(=O)NS(=O)(=O)c4cc5c(c([N+](=O)[O-])c4)N[C@@H](C4CCC(O)CC4)CO5)c(Oc4cnc5[nH]cc(F)c5c4)c3)CC2)C1` (single isomer, unassigned) [Example D-40, 2-((3-fluoro-1H-pyrrolo[2,3-b]pyridin-5-yl)oxy)-N-(((S)-3-((1s,4R)-4-hydroxycyclohexyl)-5-nitro-3,4-dihydro-2H-benzo[b][1,4]oxazin-7-yl)sulfonyl)-4-(2-((R or S)-2-(2-isopropylphenyl)pyrrolidin-1-yl)-7-azaspiro[3.5]nonan-7-yl)benzamide] reads 1 nM.

`CC(C)c1ccccc1[C@@H]1CCCN1C1CC2(CCN(c3ccc(C(=O)NS(=O)(=O)c4cc5c(c([N+](=O)[O-])c4)N[C@@H]([C@H]4CC[C@H](O)CC4)CO5)c(Oc4cnc5[nH]cc(F)c5c4)c3)CC2)C1` (single isomer, unassigned) [Example D-41, 2-((3-fluoro-1H-pyrrolo[2,3-b]pyridin-5-yl)oxy)-N-(((S)-3-((1r,4S)-4-hydroxycyclohexyl)-5-nitro-3,4-dihydro-2H-benzo[b][1,4]oxazin-7-yl)sulfonyl)-4-(2-((R or S)-2-(2-isopropylphenyl)pyrrolidin-1-yl)-7-azaspiro[3.5]nonan-7-yl)benzamide]: the IC50 was found to be 1 nM.

Take `CC(C)c1ccccc1[C@@H]1CCCN1C1CC2(CCN(c3ccc(C(=O)NS(=O)(=O)c4cc5c(c([N+](=O)[O-])c4)N[C@@H]([C@H]4CC[C@](C)(O)CC4)CO5)c(Oc4cc5cc[nH]c5nc4OC(F)F)c3)CC2)C1` (single isomer, unassigned) [Example D-11, 2-((6-(difluoromethoxy)-1H-pyrrolo [2,3-b]pyridin-5-yl)oxy)-N-(((S)-3-((1r,4S)-4-hydroxy-4-methylcyclohexyl)-5-nitro-3,4-dihydro-2H-benzo[b][1,4]oxazin-7-yl)sulfonyl)-4-(2-((R or S)-2-(2-isopropylphenyl)pyrrolidin-1-yl)-7-azaspiro[3.5]nonan-7-yl)benzamide]: the IC50 came out at 1 nM. Then `Cc1nc2[nH]ccc2cc1Oc1cc(N2CCC3(CC2)CC(N2CCC[C@H]2c2ccccc2C(C)C)C3)ccc1C(=O)NS(=O)(=O)c1cc2c(c([N+](=O)[O-])c1)N[C@@H]([C@H]1CC[C@](C)(O)CC1)CO2` (single isomer, unassigned) [Example D-39, N-(((S)-3-((1r,4S)-4-hydroxy-4-methylcyclohexyl)-5-nitro-3,4-dihydro-2H-benzo[b][1,4]oxazin-7-yl)sulfonyl)-4-(2-((R or S)-2-(2-isopropylphenyl)pyrrolidin-1-yl)-7-azaspiro[3.5]nonan-7-yl)-2-((6-methyl-1H-pyrrolo[2,3-b]pyridin-5-yl)oxy)benzamide], with 1 nM; and `COc1nc2[nH]ccc2cc1Oc1cc(N2CCC3(CC2)CN([C@H]2CCC[C@H]2c2ccccc2C(C)C)C3)ccc1C(=O)NS(=O)(=O)c1cnc(NC[C@H]2CC[C@](C)(O)CC2)c([N+](=O)[O-])c1` (single isomer, unassigned) [Example A-160, N-((6-(((1r,4r)-4-hydroxy-4-methyl-cyclohexyl)methyl)amino)-5-nitro-pyridin-3-yl)sulfonyl)-4-(2-((1S,2S or 1R,2R)-2-(2-isopropylphenyl)cyclo-pentyl)-2,7-diazaspiro[3.5]nonan-7-yl)-2-((6-methoxy-1H-pyrrolo[2,3-b]pyridin-5-yl)oxy)benzamide], with 1 nM. The result for `COC(=O)N1CCN(C2CC3(CCN(c4ccc(C(=O)NS(=O)(=O)c5cc6c(c([N+](=O)[O-])c5)N[C@@H]([C@H]5CC[C@](C)(O)CC5)CO6)c(Oc5cnc6[nH]cc(F)c6c5)c4)CC3)C2)[C@H](c2ccccc2C(C)C)C1` (single isomer, unassigned) [Example D-144, methyl (R or S)-4-(7-(3-((3-fluoro-1H-pyrrolo [2,3-b]pyridin-5-yl)oxy)-4-((S)-3-((1r,4S)-4-hydroxy-4-methylcyclohexyl)-5-nitro-3,4-dihydro-2H-benzo[b][1,4]oxazin-7-yl)sulfonyl)carbamoyl)phenyl)-7-azaspiro[3.5] nonan-2-yl)-3-(2-isopropylphenyl) piperazine-1-carboxylate] reads 1 nM.

As for `CC(C)c1ccccc1[C@@H]1CCCN1C1CC2(CCN(c3ccc(C(=O)NS(=O)(=O)c4cc5c(c([N+](=O)[O-])c4)N[C@@H]([C@H]4CC[C@](C)(O)CC4)CO5)c(Oc4cc5cc[nH]c5nc4OC[C@@H]4CCCN4)c3)CC2)C1` (single isomer, unassigned) [Example D-218, N-(((S)-3-((1r,4S)-4-hydroxy-4-methylcyclohexyl)-5-nitro-3,4-dihydro-2H-benzo[b][1,4]oxazin-7-yl)sulfonyl)-4-(2-((R or S)-2-(2-isopropylphenyl)pyrrolidin-1-yl)-7-azaspiro[3.5]nonan-7-yl)-2-((6-(((S)-pyrrolidin-2-yl)methoxy)-1H-pyrrolo[2,3-b]pyridin-5-yl)oxy)benzamide], the IC50 stood at 1 nM. Then `CC(C)c1ccccc1[C@@H]1CCCN1C1CC2(CCN(c3ccc(C(=O)NS(=O)(=O)c4cc5c(c([N+](=O)[O-])c4)N[C@@H]([C@H]4CC[C@](C)(O)CC4)CO5)c(Oc4cc5cc[nH]c5nc4OC[C@H]4CCN4C(=O)OC(C)(C)C)c3)CC2)C1` (single isomer, unassigned) [Example D-213, tert-butyl (R)-2-(((5-(2-(((S)-3-((1r,4S)-4-hydroxy-4-methylcyclohexyl)-5-nitro-3,4-dihydro-2H-benzo[b][1,4]oxazin-7-yl)sulfonyl)carbamoyl)-5-(2-((R or S)-2-(2-isopropylphenyl)pyrrolidin-1-yl)-7-azaspiro[3.5]nonan-7-yl)phenoxy)-1H-pyrrolo[2,3-b]pyridin-6-yl)oxy)methyl)azetidine-1-carboxylate], with 1 nM; and `CC(C)c1ccccc1[C@@H]1CCC(=O)N1C1CC2(CCN(c3ccc(C(=O)NS(=O)(=O)c4cc5c(c([N+](=O)[O-])c4)N[C@@H]([C@H]4CC[C@](C)(O)CC4)CO5)c(Oc4cnc5[nH]cc(F)c5c4)c3)CC2)C1` [Example D-257, 2-((3-fluoro-1H-pyrrolo[2,3-b]pyridin-5-yl)oxy)-N-(((S)-3-((1r,4S)-4-hydroxy-4-methylcyclohexyl)-5-nitro-3,4-dihydro-2H-benzo[b] [1,4]oxazin-7-yl)sulfonyl)-4-(2-((S)-2-(2-isopropylphenyl)-5-oxopyrrolidin-1-yl)-7-azaspiro[3.5]nonan-7-yl)benzamide], with 1 nM. Then `CC(=O)N1CCN(C2CC3(CCN(c4ccc(C(=O)NS(=O)(=O)c5cc6c(c([N+](=O)[O-])c5)N[C@@H]([C@H]5CC[C@](C)(O)CC5)CO6)c(Oc5cnc6[nH]cc(F)c6c5)c4)CC3)C2)[C@H](c2ccccc2C(C)C)C1` (single isomer, unassigned) [Example D-140, 4-(2-((R or S)-4-acetyl-2-(2-isopropylphenyl)piperazin-1-yl)-7-azaspiro[3.5]nonan-7-yl)-2-((3-fluoro-1H-pyrrolo [2,3-b]pyridin-5-yl)oxy)-N-(((S)-3-((1r,4S)-4-hydroxy-4-methylcyclohexyl)-5-nitro-3,4-dihydro-2H-benzo[b][1,4]oxazin-7-yl)sulfonyl)benzamide], with 1 nM.

What is called IC50 is the concentration that gives 50% inhibition.

The values are drawn from patent US20230159527A1, “COMPOUNDS AS BCL-2 INHIBITORS” (Fochon Pharmaceuticals, Ltd., priority 2020, published 2023).
